Laboratory results: patent publication US20100050299A1, “POST-HARVEST TREATMENT OF FRUITS WITH AN ANTIFUNGAL COMPOSITION” (priority 2006, published 2010)

Legend:
[1] = tested on: Colletotridcum musae CBS19231; assay: Treatment of bananas with wounds made with a knife at the stalk (Example 2); assay type: in vivo; settings: for wounds/bananas with mould growth: after 15 days of incubation, 3 bananas, wound at the stalk; for Number of wounds showing mould growth/Total number of wounds: after 15 days, 3 wounds (3 bananas with 1 wound made at the stalk per banana)
Description: (§1) In this experiment organic bananas, Sabrosa® from the Dominican Republic, were used. The bananas were obtained from a local retailer in The Netherlands. The bananas were treated with spores of the phytopathogenic mould Colletotridcum musae CBS19231. The mould spores were obtained using well-known methods. The bananas were injured according to the method described by de Lapere de Bellaire and Dubois (1987). Bananas were wounded two times using a cork borer followed by contamination with approximately 2.5×10^4 mould spores of C. musae CBS19231 per wound. After incubation for 4 hours at room temperature, the bananas were dipped for one minute in one of the following compositions: a) no treatment (control 1), b) dipped in water (control 2), c) dipped in 1000 ppm natamycin, d) dipped in 240 mM of potassium phosphite, e) dipped in 1000 ppm of natamycin+240 mM of potassium phosphite. The experiment was executed in triplo; the natamycin and potassium phosphite solution were prepared using well-known methods. All compositions contained 0.1% (v/v) of the sticking agent Bond® (Loveland Industries Ltd.) and 0.14% (v/v) of the surfactant Zipper® (Asepta BV, The Netherlands). After this treatment the bananas were incubated in closed boxes at 21° C. at elevated humidity. Each day the bananas were judges visually on mould development.
The experiment described in this example was done identically compared to the experiment described in Example 1, with the proviso that the wounds were made with a knife at the stalk of the bananas.

[2] = tested on: Colletotridcum musae CBS19231; assay: Treatment of banana clusters wounded at the hand, Neocryl and xanthan instead of Bond and Zipper (Example 6); assay type: in vivo; settings: for wounds with mould growth: after 15 days of incubation, 6 wounds; for Number of wounds showing mould growth/Total number of wounds: after 15 days, Neocryl 21.3 g/l and xanthan 1.0 g/l, 6 wounds (3 clusters, 2 wounds per cluster at the hand)
Description: as §1
(§2) In this experiment freshly harvested bananas were used. A few days after harvesting and the de-latexing treatment to remove latex which is leaking from the wounds using well-known methods, the bananas were infected with mould spores and treated as described in Example 1. For each composition, 3 clusters comprising 4 bananas per cluster were used (experiment done in triplo).
(§3) The experiment described in this example was done identically compared to the experiment described in Example 3, with the proviso that bananas were harvested and thereafter new wounds were made with a knife at the stalk of the banana clusters (2 wounds were made per cluster).
The experiment described herein was executed as described in Example 4, with the proviso that the sticking agent Bond® and the surfactant Zipper® were replaced by Neocryl® (DSM) and xanthan in a concentration of respectively 21.3 g/l and 1.0 g/l. Three clusters comprising 4 bananas each were wounded two times at the hand of the cluster resulting in a total number of wounds of 6.

[3] = tested on: Colletotridcum musae CBS19231; assay: Treatment of bananas, Neocryl and xanthan instead of Bond and Zipper (Example 5); assay type: in vivo; settings: after 15 days; for wounds showing mould growth: 12 wounds; for Number of wounds showing mould growth/Total number of wounds: Neocryl 21.3 g/l and xanthan 1.0 g/l, 12 wounds (6 bananas with 2 wounds per banana)
Description: as §1
The experiment described herein was executed as described in Example 1. However, in this experiment the sticking agent Bond® and the surfactant Zipper® were not used; instead Neocryl® (DSM) and xanthan were applied in a concentration of respectively 21.3 g/l and 1.0 g/l. In this experiment 12 wounds were made instead of 6 (2 wounds per banana; 6 bananas wounded).

[4] = tested on: Colletotridcum musae CBS19231; assay: Treatment of freshly harvested banana clusters (Example 3); assay type: in vivo; settings: for bananas of the clusters on which moulds were observed: after 15 days of incubation, 12 bananas; for Number of bananas showing mould growth/Total number of bananas: after 15 days, freshly harvested, 12 bananas (3 clusters with 4 bananas per cluster)
Description: as §1, §2

[5] = tested on: Colletotridcum musae CBS19231; assay: Treatment of bananas wounded with a cork borer and contaminated with mould spores, then dipped (Example 1); assay type: in vivo; settings: for Number of wounds showing mould growth/Total number of wounds: after 15 days at 21° C., dipped one minute, 1000 ppm natamycin, 240 mM potassium phosphite, 6 wounds (3 bananas with 2 wounds per banana); for wounds showing mould growth: after 15 days, out of 6 wounds
Description: as §1

moulds on bananas = settings: in vivo; cited from earlier work
[6] = tested on: Colletotridcum musae CBS19231; assay: Treatment of freshly harvested banana clusters, new wounds made with a knife at the stalk (Example 4); assay type: in vivo; settings: for mould growth on banana clusters: after 15 days of incubation, 3 banana clusters; for Number of clusters showing severe mould growth/Total number of clusters: after 15 days, freshly harvested, 3 clusters, 2 wounds per cluster at the stalk
Description: as §1, §2, §3

C[C@@H]1C/C=C/C=C/C=C/C=C/[C@H](O[C@@H]2O[C@H](C)[C@@H](O)[C@H](N)[C@@H]2O)C[C@@H]2O[C@](O)(C[C@@H](O)C[C@H]3O[C@@H]3/C=C/C(=O)O1)C[C@H](O)[C@H]2C(=O)O [Composition c, natamycin]
wounds/bananas with mould growth [1]: 2 of 3
Number of wounds showing mould growth/Total number of wounds [1]: 2/3
wounds with mould growth [2]: all wounds
Number of wounds showing mould growth/Total number of wounds [2]: 6/6
wounds showing mould growth [3]: 50%
Number of wounds showing mould growth/Total number of wounds [3]: 6/12
bananas of the clusters on which moulds were observed [4]: all bananas
Number of bananas showing mould growth/Total number of bananas [4]: 12/12
Number of wounds showing mould growth/Total number of wounds [5]: 6/6
wounds showing mould growth [5]: 6
control of moulds on bananas (moulds on bananas): not sufficiently active
spectrum of action (moulds on bananas): broad spectrum action
mould growth on banana clusters [6]: in all of the natamycin treated banana clusters
Number of clusters showing severe mould growth/Total number of clusters [6]: 3/3

potassium phosphite [Composition d]
wounds/bananas with mould growth [1]: all wounds
Number of wounds showing mould growth/Total number of wounds [1]: 3/3
wounds with mould growth [2]: all wounds
Number of wounds showing mould growth/Total number of wounds [2]: 6/6
wounds showing mould growth [3]: 25%
Number of wounds showing mould growth/Total number of wounds [3]: 3/12
bananas of the clusters on which moulds were observed [4]: all bananas
Number of bananas showing mould growth/Total number of bananas [4]: 12/12
Number of wounds showing mould growth/Total number of wounds [5]: 5/6
wounds showing mould growth [5]: 5 out of 6
mould growth on banana clusters [6]: 2 of the 3
Number of clusters showing severe mould growth/Total number of clusters [6]: 2/3
